Assay results reported in patent US11213542B2, “Method and agent for lowering total cholesterol levels and for improving blood lipid spectrum composition” (BIOGIX, INC., priority 2018, dated 2022).
Where two headings read alike, the source gives them in different places. Marks after values point to notes of the source that are not given here.

Tested on: patients with abnormal levels of lipid spectrum
[1] = Visit 1 (baseline), 4000 mg vitamin PP daily for 5 days
[2] = Visit 2 (5 days of supplementation), 4000 mg vitamin PP daily
[3] = Visit 3 (10 days after last dose), 15 days, 4000 mg vitamin PP daily for 5 days
[4] = Visit 4 (30 days after last dose), 35 days, 4000 mg vitamin PP daily for 5 days

O=C(O)c1cccnc1 [PP, vitamin PP]
patients dropped out due to side effects (3rd day of the trial): 1 patients
effect on lipid spectrum (in words) (4000 mg vitamin PP daily, 5 days): quickly lowers TC and LDL, without significantly changing the rest of the lipid spectrum parameters
patients dropped out due to side effects (4th day of the trial): 3 patients
patients dropped out due to adverse effects (PP group, 4000 mg vitamin PP daily, 5 days): 12%
HDL (high density lipoproteins) [1]: 0.98 mmol/L
LDL (low density lipoproteins) [1]: 3.13 mmol/L
La (lipoprotein a) [1]: 36.75 mg/dL
TC (total cholesterol) [1]: 6.77 mmol/L
TG (triglycerides) [1]: 2.35* mmol/L
VLDL (very low density lipoproteins) [1]: 1.14 mmol/L
HDL (high density lipoproteins) [2]: 0.99 mmol/L
LDL (low density lipoproteins) [2]: 2.58 mmol/L
La (lipoprotein a) [2]: 38.39 mg/dL
TC (total cholesterol) [2]: 5.99 mmol/L
TG (triglycerides) [2]: 2.40 mmol/L
VLDL (very low density lipoproteins) [2]: 1.11 mmol/L
HDL (high density lipoproteins) [3]: 0.95 mmol/L
LDL (low density lipoproteins) [3]: 2.97 mmol/L
La (lipoprotein a) [3]: 37.40 mg/dL
TC (total cholesterol) [3]: 6.12 mmol/L
TG (triglycerides) [3]: 2.33 mmol/L
VLDL (very low density lipoproteins) [3]: 1.15 mmol/L
HDL (high density lipoproteins) [4]: 0.99 mmol/L
LDL (low density lipoproteins) [4]: 3.18 mmol/L
La (lipoprotein a) [4]: 37.29 mg/dL
TC (total cholesterol) [4]: 6.81 mmol/L
TG (triglycerides) [4]: 2.37 mmol/L
VLDL (very low density lipoproteins) [4]: 1.16 mmol/L
duration of efficacy (after 5-day course of 4000 mg vitamin PP daily): ≤ 10 days
patients dropped out due to side effects (second day of the trial): 2 patients
